In article PMC6533572, “Elucidation of the Differences in Cinobufotalin’s Pharmacokinetics Between Normal and Diethylnitrosamine-Injured Rats: The Role of P-Glycoprotein” (Frontiers in Pharmacology, 2019):
Several values for one entry are separate records, joined by “and”; a condition that tells them apart may be missing. Identical values can stand only once. Like-named read-outs stand apart in the source and are kept apart here.

Legend:
[1] = Pharmacokinetic study after i.v. injection in normal and DEN-injured rats; format: in vivo, Sprague Dawley rats; conditions: i.v. 2.5 mg/kg, two-compartment model; for AUC / C0 / clearance / half-life: male, Sprague Dawley, rat, plasma, iv; for half-life: read-out: t1/2β (converted)
Experimental: Male Sprague Dawley rats (200–220 g), used for pharmacokinetic (PK) studies, were purchased from Beijing Vital River Laboratory Animal Technology Co., Ltd. (Beijing, China). All animals were housed under standardized condition (12 h light/dark schedule), and they were kept 1 week prior to experiments for acclimation. All animal experiments were carried out in accordance with the National Institutes of Health guide for the care and use of Laboratory animals (NIH Publications No. 8023, revised 1978) and were approved by the Medical and Research Ethics Committee of College of Medicine, Henan University.
For PK studies, the rats were randomly divided into two experimental groups (10 rats for normal rats group and 20 rats for DEN-injured rats group, considering the animal casualties during the modeling process). HCC rat model was established by intraperitoneal administration of 50 mg/kg DEN two times per week ([Fuchs et al., 2014]), and the control group rats were treated with normal saline in the same way. After 14 weeks of administration, three rats were randomly selected and anesthetized by anesthesia cocktail (Ketamine 50 mg/mL, Xylazine 3.3 mg/mL and Acetopromazine 3.3 mg/mL). Then the liver was taken out and photographed to determine whether the animal model was successfully constructed.
Before PK experiment, a cannula was introduced into the jugular vein of the anesthetized rat and administrated carprofen subcutaneously after the surgery. After observation for 24 h, when the activity and excretion of rats were normal, rats were dosed with cinobufotalin at 2.5 mg/kg through jugular vein cannula. Blood samples (200 μL) were withdrawn at each pointed time (5, 10, 15, 30, 45 min, and 1, 1.5, 2, 4, 6, 8, 12, and 24 h) after dosing, and whole blood was transferred into tubes pre-treated with heparin (1000 U/mL). Then an equal volume of saline was injected into rats through jugular vein cannula immediately. The blood samples were immediately centrifuged at 4°C (8000 g, 10 min) to obtain the plasma, and the plasma samples were stored at -80°C until analysis. After sampling at the last time point, all rats were anesthetized immediately. Blood was washed out with ice-cold saline through the hepatic portal vein, and then liver tissues were removed, weighed and stored at -80°C until analysis.
Hundred microliter of plasma was transferred to a new clean tube, and samples were treated with protein precipitation assay as described in Preparation of rat plasma samples section. Then calibration curve was prepared to quantify the amount of cinobufotalin in plasma samples according to the steps as described in method validation part.
PK and statistical data analyses were performed using WinNonlin 3.3. The two-compartment model (two-compartment i.v.-Bolus, macro-constants, no lag time, first order elimination, Figure 2) was selected to obtain the PK parameters of cinobufotalin in rats. The model equation was as followed:
(3) C(t)=A∗EXP(−Alpha∗t)+B∗EXP(−Beta∗t)

P-glycoprotein (P-gp) = target: T1, P-glycoprotein (P-gp) (Homo sapiens, UniProt P08183); experiment: Cellular uptake (intracellular accumulation) in MDCK-MDR1 cells; format: in vitro ADME; conditions: 2 h; for increase of intracellular accumulation of cinobufotalin by verapamil: MDCK-MDR1 cells, verapamil 100 μM
T1 construct: expressed in transfected cells; host or cells: MDCK II (Madin Darby canine kidney) cells stably transfected with the MDR1 gene
Experimental: Madin Darby canine kidney (MDCK II) cells stably transfected with multidrug resistance 1 gene (MDCK-MDR1 cells) were conducted and used in cinobufotalin uptake studies. Wild type MDCK II or MDCK-MDR1 cells were seeded into six-well plates at the destiny of 2 × 10^5 cells/well and maintained at 37°C under 5% CO2 in DMEM with 10% FBS. The well-known P-gp inhibitor, verapamil (100 μM), was used as the positive control to evaluate the effect of P-gp on cinobufotalin uptake ([Bicker et al., 2017]).
The uptake experiment was performed when the cells reached 100% confluency. First, cells were washed three times using 37°C Hanks’ balanced salt solution (HBSS) buffer (pH = 7.2). Then, 2 mL HBSS (37°C, pH = 7.2) buffer containing cinobufotalin (5 and 20 μM) were added and incubated with cells in the absence or presence of potential P-gp inhibitors, verapamil (100 μM). After incubation for 2 h, the incubation medium was removed, and cells were washed three times using ice-cold HBSS buffer. Then 400 μL of ice-cold MeOH:H2O (1:1, v/v) were added into each well, the cells were collected and sonicated for 15 min in ice-cold water. The mixture was centrifuged at 4°C (12,000 g, 10 min), and the supernatant was subjected to UPLC-QTOF/MS for analyses.

Huh-7 cells = experiment: Wound healing assay, Huh-7 cells; format: cell-based; conditions: 40, 60 and 80 nM, 24 h
Experimental: Hepatocellular cancer cells (HepG2 and Huh-7) were purchased from the cell bank of the Chinese Academy of Science (Shanghai, China). These cells were cultured in Dulbecco’s modified Eagle’s medium (DMEM) containing 10% fetal bovine serum (FBS), penicillin (100 units/mL) and streptomycin (100 units/mL) in a humidified atmosphere with 5% CO2 at 37 °C.
Wound healing assay was used to investigate the effect of cinobufotalin on the migration of HepG2 and Huh-7 cells. Cells were seeded into 6-well plates at the density of 4 × 10^5 cells/well and maintained until reaching monolayer confluence. The cells were scratched using 20-μL pipette tips and rinsed with PBS buffer for three times. And then the cells were cultured in serum-free medium containing different concentrations of cinobufotalin (40, 60, 80 nM). After treatment with cinobufotalin for different lengths of time (0 and 24 h), the width of wound was measured and the images of cells were acquired using inverted microscope (Leica, Wetzlar, German). The rate of wound healing = [(the wound width of 0 h - 24 h)/0 h wound width] × 100%. All experiments were performed in triplicate.

[2] = design: method as in Bick et al., 2002; Bi et al., 2016; conditions: ref Bick et al., 2002, Bi et al., 2016; cited from earlier work

T1 sequence (P08183 whole entry): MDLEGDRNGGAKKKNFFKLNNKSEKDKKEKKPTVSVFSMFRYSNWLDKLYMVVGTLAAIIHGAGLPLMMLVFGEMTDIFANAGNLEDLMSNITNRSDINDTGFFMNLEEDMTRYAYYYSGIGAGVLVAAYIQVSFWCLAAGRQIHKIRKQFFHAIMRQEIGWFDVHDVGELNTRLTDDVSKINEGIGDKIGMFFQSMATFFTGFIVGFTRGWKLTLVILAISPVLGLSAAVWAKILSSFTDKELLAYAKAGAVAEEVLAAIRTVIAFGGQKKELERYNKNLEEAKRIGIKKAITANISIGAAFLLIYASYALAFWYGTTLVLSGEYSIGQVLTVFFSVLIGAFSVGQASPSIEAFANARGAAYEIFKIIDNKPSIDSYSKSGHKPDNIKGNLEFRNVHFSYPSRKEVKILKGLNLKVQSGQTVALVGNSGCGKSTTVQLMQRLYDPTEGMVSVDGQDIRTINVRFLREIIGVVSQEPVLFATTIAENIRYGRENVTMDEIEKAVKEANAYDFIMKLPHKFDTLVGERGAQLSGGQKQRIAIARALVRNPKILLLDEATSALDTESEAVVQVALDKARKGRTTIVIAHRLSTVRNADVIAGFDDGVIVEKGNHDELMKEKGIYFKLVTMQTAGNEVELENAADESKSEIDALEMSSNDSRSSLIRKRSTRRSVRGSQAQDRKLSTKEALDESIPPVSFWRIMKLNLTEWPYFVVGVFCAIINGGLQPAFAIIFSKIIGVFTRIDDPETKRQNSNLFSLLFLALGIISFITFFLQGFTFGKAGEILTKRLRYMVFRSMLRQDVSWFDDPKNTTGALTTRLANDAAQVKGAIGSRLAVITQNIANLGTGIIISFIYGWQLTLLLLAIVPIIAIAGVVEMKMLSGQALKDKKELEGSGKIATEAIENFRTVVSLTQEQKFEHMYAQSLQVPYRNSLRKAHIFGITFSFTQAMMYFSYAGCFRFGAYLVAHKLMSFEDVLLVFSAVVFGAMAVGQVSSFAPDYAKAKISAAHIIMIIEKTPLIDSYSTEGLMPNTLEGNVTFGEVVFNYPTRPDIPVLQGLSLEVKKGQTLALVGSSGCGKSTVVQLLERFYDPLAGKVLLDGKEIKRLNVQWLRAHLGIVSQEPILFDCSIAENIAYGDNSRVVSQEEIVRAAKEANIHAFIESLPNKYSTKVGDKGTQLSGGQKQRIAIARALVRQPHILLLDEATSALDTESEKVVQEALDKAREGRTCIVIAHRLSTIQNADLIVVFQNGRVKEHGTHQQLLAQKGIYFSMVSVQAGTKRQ

Q: With `CC(=O)O[C@H]1[C@H]2O[C@]23[C@@H]2CC[C@]4(O)C[C@@H](O)CC[C@]4(C)[C@H]2CC[C@]3(C)[C@H]1c1ccc(=O)oc1` [Cinobufotalin] as the compound, how does the CL2 ([1]; DEN-injured rats) read?
A: 135 ± 28.3 mL/min/kg

Q: What about the K10 ([1]; DEN-injured rats) of the same compound?
A: 1.0 ± 0.3^* 1/h

Q: And the K21 ([1]; DEN-injured rats)?
A: 0.3 ± 0.1 h⁻¹

Q: What about the V ([1]; DEN-injured rats) of the same compound?
A: 2.4 ± 0.6 L/kg

Q: And the V2 ([1]; DEN-injured rats)?
A: 31.5 ± 10.4 L/kg

Q: And the K12 ([1]; DEN-injured rats, 2.5 mg/kg)?
A: 3.2 ± 0.8 h⁻¹

Q: What about the t1/2α ([1]; DEN-injured rats, 2.5 mg/kg) of the same compound?
A: 0.2 ± 0.1 h

Q: And the AUC ([1]; 2.5 mg/kg, DEN-injured rats)?
A: 1100 ± 300 ng·h/mL

Q: What about the C0 ([1]; 2.5 mg/kg, DEN-injured rats) of the same compound?
A: 1100 ± 300 ng/mL

Q: And the clearance ([1]; 2.5 mg/kg, DEN-injured rats)?
A: 40 mL/min/kg

Q: What about the half-life ([1]; 2.5 mg/kg, DEN-injured rats) of the same compound?
A: 13.4 ± 5.8 h

Q: And the AUC ([1]; 2.5 mg/kg, normal rats)?
A: 2600 ± 500 ng·h/mL

Q: And the C0 ([1]; 2.5 mg/kg, normal rats)?
A: 1400 ± 400 ng/mL

Q: And the clearance ([1]; 2.5 mg/kg, normal rats)?
A: 16.7 mL/min/kg

Q: What about the half-life ([1]; 2.5 mg/kg, normal rats) of the same compound?
A: 13.2 ± 1.3 h

Q: And the CL2 ([1]; normal rats)?
A: 55 ± 6.7 mL/min/kg

Q: And the K10 ([1]; normal rats)?
A: 0.5 ± 0.2 h⁻¹

Q: And the K21 ([1]; normal rats)?
A: 0.3 ± 0 h⁻¹

Q: And the V ([1]; normal rats)?
A: 2.1 ± 0.6 L/kg

Q: What about the V2 ([1]; normal rats) of the same compound?
A: 13.1 ± 1.3 L/kg

Q: And the t1/2α ([1]; normal rats)?
A: 0.3 ± 0.1 h

Q: What about the K12 ([1]; normal rats, 2.5 mg/kg) of the same compound?
A: 1.8 ± 0.5 h⁻¹ and 1.8 ± 0.8 h⁻¹

Q: And the “intracellular amount of cinobufotalin in MDCK II cells compared with MDCK-MDR1 cells” value (P-glycoprotein (P-gp); 5 and 20 μM)?
A: obviously higher

Q: What about the “increase of intracellular accumulation of cinobufotalin by verapamil” value (P-glycoprotein (P-gp); cinobufotalin 5 μM) of the same compound?
A: 4.0 fold

Q: And the “increase of intracellular accumulation of cinobufotalin by verapamil” value (P-glycoprotein (P-gp); cinobufotalin 20 μM)?
A: 3.5 fold

Q: What about the “migration of Huh-7 cells (wound healing)” value (Huh-7 cells) of the same compound?
A: significantly attenuated

Q: And the “toxicity on over dose” value [2]?
A: cardiotoxicity and neurotoxicity
